Laboratory results: patent publication US20250353873A1, “COMPOUNDS AND METHODS FOR MODULATING APOE EXPRESSION” (Ionis Pharmaceuticals, Inc., priority 2024, published 2025)
Where “and” joins values, the source holds several entries; their conditions need not be identical. Equal entries are not always repeated. Strand notation (5' to 3'): a small letter for the sugar, then the base; units joined by * are phosphorothioate-linked, units joined directly phosphodiester-linked; [ ] holds rarer units or linkages, { } end groups; capitals alone tell only the bases. [ms] = mesyl phosphoramidate linkage; k = constrained ethyl (cEt); [5mC] = 5-methylcytosine; d = 2'-deoxy (DNA)

What follows are substances tested on human APOE RNA (assay: Dose-dependent inhibition of human APOE RNA in differentiated SH-SY5Y cells, free uptake, 5 days (Example 5)). Settings: 205 nM, 5 days (Table 14).
Format: cell-based
Procedure: Modified oligonucleotides selected from the examples above were tested at various doses in differentiated SH-SY5Y cells. The modified oligonucleotides were tested in a series of experiments that had the same culture conditions.
Differentiated SH-SY5Y cells plated at a density of 10,000 cells per well were treated by free uptake with various concentrations of modified oligonucleotide as specified in the tables below. […] APOE RNA levels were measured using the human primer probe set RTS3073 (described herein above). APOE RNA levels were normalized to human PPIA. Human PPIA was amplified using human primer probe set mk_cycloA_2nd (described herein above). Results are presented as percent APOE RNA, relative to the amount of APOE RNA in untreated control cells (% UTC). The half maximal inhibitory concentration (IC50) of each modified oligonucleotide was calculated in GraphPad Prism 10 (GraphPad Software, San Diego, CA) and is also presented in the tables below.

| Substance | APOE RNA (% UTC) |
| --- | --- |
| 1746804 (k[5mC]*kT*kT*dG[ms]dG[ms]dT[ms]dG[ms]dA[ms]dA[ms]dT*d[5mC]*dT*dT*dT*dA[ms]dT*dT[ms]kA*kA*kA; antisense) [Compound 1746804] | 84 |

Same assay, conditions: 512 nM, 5 days (Table 14)

| Substance | APOE RNA (% UTC) |
| --- | --- |
| 1746804 (k[5mC]*kT*kT*dG[ms]dG[ms]dT[ms]dG[ms]dA[ms]dA[ms]dT*d[5mC]*dT*dT*dT*dA[ms]dT*dT[ms]kA*kA*kA; antisense) [Compound 1746804] | 82 |

Same assay, conditions: 1,280 nM, 5 days (Table 14)

| Substance | APOE RNA (% UTC) |
| --- | --- |
| 1746804 (k[5mC]*kT*kT*dG[ms]dG[ms]dT[ms]dG[ms]dA[ms]dA[ms]dT*d[5mC]*dT*dT*dT*dA[ms]dT*dT[ms]kA*kA*kA; antisense) [Compound 1746804] | 61 |

Same assay, conditions: 3,200 nM, 5 days (Table 14)

| Substance | APOE RNA (% UTC) |
| --- | --- |
| 1746804 (k[5mC]*kT*kT*dG[ms]dG[ms]dT[ms]dG[ms]dA[ms]dA[ms]dT*d[5mC]*dT*dT*dT*dA[ms]dT*dT[ms]kA*kA*kA; antisense) [Compound 1746804] | 48 |

Same assay, conditions: 8,000 nM, 5 days (Table 14)

| Substance | APOE RNA (% UTC) |
| --- | --- |
| 1746804 (k[5mC]*kT*kT*dG[ms]dG[ms]dT[ms]dG[ms]dA[ms]dA[ms]dT*d[5mC]*dT*dT*dT*dA[ms]dT*dT[ms]kA*kA*kA; antisense) [Compound 1746804] | 32 |

Same assay, conditions: 20,000 nM, 5 days (Table 14)

| Substance | APOE RNA (% UTC) |
| --- | --- |
| 1746804 (k[5mC]*kT*kT*dG[ms]dG[ms]dT[ms]dG[ms]dA[ms]dA[ms]dT*d[5mC]*dT*dT*dT*dA[ms]dT*dT[ms]kA*kA*kA; antisense) [Compound 1746804] | 18 |

Same assay, conditions: 5 days (Table 14)

| Substance | IC50 [µM] |
| --- | --- |
| 1746804 (k[5mC]*kT*kT*dG[ms]dG[ms]dT[ms]dG[ms]dA[ms]dA[ms]dT*d[5mC]*dT*dT*dT*dA[ms]dT*dT[ms]kA*kA*kA; antisense) [Compound 1746804] | 2.83 |

Each substance was assayed on human APOE RNA (assay: Activity in APOE C57BL/6NTac-Apoeem7250 knock-in mice, single ICV bolus, 4 weeks (Example 10)). Settings: cortex; single ICV bolus 300 μg; 4 weeks post treatment; normalized to mouse Ppia.
Format: in vivo
Outline: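 Human APOE RNA, quantified by real-time RT-PCR with RTS3073 and normalized to mouse Ppia, was read in cortical brain and spinal cord 4 weeks post dosing. Dosing was a single ICV bolus of 300 μg per knock-in mouse; values are % of PBS-treated animals.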

| Substance | APOE RNA (% control) Cortex |
| --- | --- |
| 1746804 (k[5mC]*kT*kT*dG[ms]dG[ms]dT[ms]dG[ms]dA[ms]dA[ms]dT*d[5mC]*dT*dT*dT*dA[ms]dT*dT[ms]kA*kA*kA; antisense) [Compound 1746804] | 51 % control and 46 % control |

Same assay, conditions: spinal cord; single ICV bolus 300 μg; 4 weeks post treatment; normalized to mouse Ppia

| Substance | APOE RNA (% control) Spinal Cord |
| --- | --- |
| 1746804 (k[5mC]*kT*kT*dG[ms]dG[ms]dT[ms]dG[ms]dA[ms]dA[ms]dT*d[5mC]*dT*dT*dT*dA[ms]dT*dT[ms]kA*kA*kA; antisense) [Compound 1746804] | 52 % control and 40 % control |

Each substance was assayed on human APOE RNA (assay: Activity in APOE C57BL/6NTac-Apoeem7250 knock-in mice, single ICV bolus, 8 weeks (Example 11)). Settings: cortex; single ICV bolus 300 μg; 8 weeks post treatment; normalized to mouse Ppia.
Format: in vivo
Outline: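 Cortical and spinal cord human APOE RNA quantified by RT-qPCR 8 weeks after a single 300 μg ICV dose in knock-in mice, Ppia-normalized. Values are percent of levels in PBS-treated animals.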

| Substance | APOE RNA (% control) Cortex [% control] |
| --- | --- |
| 1746804 (k[5mC]*kT*kT*dG[ms]dG[ms]dT[ms]dG[ms]dA[ms]dA[ms]dT*d[5mC]*dT*dT*dT*dA[ms]dT*dT[ms]kA*kA*kA; antisense) [Compound 1746804] | 40 |

Same assay, conditions: spinal cord; single ICV bolus 300 μg; 8 weeks post treatment; normalized to mouse Ppia

| Substance | APOE RNA (% control) Spinal Cord [% control] |
| --- | --- |
| 1746804 (k[5mC]*kT*kT*dG[ms]dG[ms]dT[ms]dG[ms]dA[ms]dA[ms]dT*d[5mC]*dT*dT*dT*dA[ms]dT*dT[ms]kA*kA*kA; antisense) [Compound 1746804] | 25 |

These substances were tested on human APOE RNA (assay: Duration of action study in APOE C57BL/6NTac-Apoeem7250 knock-in mice (Example 16)). Settings: cortex; 300 μg ICV; 112 days post-dose.
Format: in vivo
Procedure: Modified oligonucleotides described above were tested in the APOE C57BL/6NTac-Apoeem7250 knock-in mouse model described above.
APOE C57BL/6NTac-Apoeem7250 knock-in mice were divided into groups of 2-4 mice each. Each mouse received a single intracerebroventricular (ICV) bolus of 300 μg of modified oligonucleotide. A group of 2-4 mice received a single ICV bolus with PBS as a negative control.
Mice were sacrificed at various timepoints as indicated in the table below and RNA was extracted from cortical brain tissue and spinal cord for quantitative real-time RT-PCR analysis of RNA expression of APOE using primer probe set RTS3073 (described herein above). APOE RNA levels were normalized to mouse Ppia. Mouse Ppia was amplified using primer probe set m_cyclo24 (described herein above). Results are presented as percent human APOE RNA relative to the amount of human APOE RNA in PBS treated animals, (% control). Each experiment is identified in separate tables below.

| Substance | APOE RNA (% control) Cortex [% control] |
| --- | --- |
| 1746804 (k[5mC]*kT*kT*dG[ms]dG[ms]dT[ms]dG[ms]dA[ms]dA[ms]dT*d[5mC]*dT*dT*dT*dA[ms]dT*dT[ms]kA*kA*kA; antisense) [Compound 1746804] | 37 |

Same assay, conditions: cortex; 300 μg ICV; 140 days post-dose

| Substance | APOE RNA (% control) Cortex [% control] |
| --- | --- |
| 1746804 (k[5mC]*kT*kT*dG[ms]dG[ms]dT[ms]dG[ms]dA[ms]dA[ms]dT*d[5mC]*dT*dT*dT*dA[ms]dT*dT[ms]kA*kA*kA; antisense) [Compound 1746804] | 60 |

Same assay, conditions: spinal cord; 300 μg ICV; 112 days post-dose

| Substance | APOE RNA (% control) Spinal Cord [% control] |
| --- | --- |
| 1746804 (k[5mC]*kT*kT*dG[ms]dG[ms]dT[ms]dG[ms]dA[ms]dA[ms]dT*d[5mC]*dT*dT*dT*dA[ms]dT*dT[ms]kA*kA*kA; antisense) [Compound 1746804] | 205 |

Same assay, conditions: spinal cord; 300 μg ICV; 140 days post-dose

| Substance | APOE RNA (% control) Spinal Cord [% control] |
| --- | --- |
| 1746804 (k[5mC]*kT*kT*dG[ms]dG[ms]dT[ms]dG[ms]dA[ms]dA[ms]dT*d[5mC]*dT*dT*dT*dA[ms]dT*dT[ms]kA*kA*kA; antisense) [Compound 1746804] | 207 |
